Entries after “also recorded” stand apart in the source; their conditions may differ.
Key:
[1] = biological target: T1, Sema3A (Mus musculus, UniProt O08665); test: Collagen gel co-culture: suppression of neurite outgrowth inhibitory action of Sema3A; format: cell-based; parameters: key to suppression of neurite outgrowth inhibitory activity of Sema3A, score / inhibition of neurite outgrowth-inhibitory action of Sema3A, score: neurites outgrew in a complete concentric circular shape just like for the control groups where Sema3A-non-expressing COS7 cells were used, it was scored +++ (a strong inhibitory effect for Sema3A); outgrowth was found almost in a concentric circular shape accompanied with a little suppression of the outgrowth toward the direction of Sema3A-expressing COS cells, it was scored ++; outgrowth toward the direction of Sema3A-expressing COS cells is fairly suppressed to present a crescent shape, it was scored +; outgrowth toward the direction of Sema3A-expressing COS cells was not found at all (no inhibitory effect for Sema3A), it was scored −; conditions: for suppression of neurite outgrowth inhibitory activity of Sema3A, score: Example 5; for inhibition of neurite outgrowth-inhibitory action of Sema3A, score: 2 μg/ml compound, Example 16; for persistent inhibitory action to Sema3A (neurite outgrowth toward Sema3A-expressing COS7 cell clump): collagen gel co-culture, 2 days
T1 construct: expressed in transfected cells; host or cells: COS7
T1 sequence (O08665 21-772): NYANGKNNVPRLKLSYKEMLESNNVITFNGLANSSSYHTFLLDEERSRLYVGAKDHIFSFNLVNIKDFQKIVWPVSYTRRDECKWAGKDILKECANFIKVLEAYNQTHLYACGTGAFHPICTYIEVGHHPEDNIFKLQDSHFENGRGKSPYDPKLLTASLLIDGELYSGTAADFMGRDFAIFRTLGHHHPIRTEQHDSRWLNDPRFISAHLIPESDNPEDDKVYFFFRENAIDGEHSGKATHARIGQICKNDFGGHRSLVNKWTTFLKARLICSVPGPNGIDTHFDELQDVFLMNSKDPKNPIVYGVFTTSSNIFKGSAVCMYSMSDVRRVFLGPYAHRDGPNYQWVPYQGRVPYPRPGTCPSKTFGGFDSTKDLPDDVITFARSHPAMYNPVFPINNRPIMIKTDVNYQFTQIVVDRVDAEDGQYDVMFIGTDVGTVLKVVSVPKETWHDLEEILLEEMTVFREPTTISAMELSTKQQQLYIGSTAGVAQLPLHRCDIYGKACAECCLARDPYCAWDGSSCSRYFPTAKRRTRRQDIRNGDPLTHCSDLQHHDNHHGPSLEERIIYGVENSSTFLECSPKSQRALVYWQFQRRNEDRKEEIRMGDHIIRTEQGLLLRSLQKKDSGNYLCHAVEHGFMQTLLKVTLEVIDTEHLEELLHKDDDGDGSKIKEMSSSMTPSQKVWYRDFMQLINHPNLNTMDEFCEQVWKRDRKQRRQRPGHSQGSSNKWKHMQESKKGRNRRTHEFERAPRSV
Method: Whether the object compounds (SPF-3059-1, M162, A721) have persistent inhibitory action to Sema3A was analyzed by the collagen gel co-culture method (Neuroprotocols 4, 116, 1994) using Sema3A-expressing COS7 cell clumps and 7- or 8-day-old chick embryo dorsal root ganglions. The Sema3A-expressing COS7 cell clumps were generated as follows. 1 μg of Sema3A-expression plasmid was introduced into COS7 cells (100000 cells/35 mm culture plate), which were cultured overnight, with the FuGENE6 transfection reagent (Roche). 2.5 hours after the starting of the transfection, the COS7 cells were collected by trypsinization and centrifugation, and re-suspended in a medium of 200 μl. 20 μl of the cell suspension was placed on the lid of the culture plate (inside) and the lid was turned over, and then the suspension was cultivated for 20 hours (hanging drop culture) (Cell 78, 425, 1994). When the culture was over, aggregated COS7 cells (clump) were collected and trimmed to a diameter of 0.5 mm. The Sema3A-expressing COS7 cell clump and the above-mentioned dorsal root ganglions were placed in parallel at a distance of 0.5 to 1 mm in a 0.2% collagen gel which was then cultivated in a medium containing the aforementioned compounds at various concentrations for 2 days at 37° C. under 5% CO2. Glutaraldehyde was quickly added therein to make the final concentration 1%. The cultures were then left for 1 hour at room temperature so that the tissues were fixed, and the neurite outgrowth was microscopically observed. The results are found in FIG. 4.
When a medium not containing a subject compound was used, neurites were unable to grow towards the COS7 cell clump with the high concentration of Sema3A and grew only to the opposite direction.
In a similar way as in Example 4, suppression of the neurite outgrowth inhibitory activity was analyzed for the compounds, SPF-3059-1, SPF-3059-2 and SPF-3059-5. When the neurites outgrew in a complete concentric circular shape just like for the control groups where Sema3A-non-expressing COS7 cells were used, it was scored +++ (a strong inhibitory effect for Sema3A). When the outgrowth was found almost in a concentric circular shape accompanied with a little suppression of the outgrowth toward the direction of Sema3A-expressing COS cells, it was scored ++. […] When the outgrowth toward the direction of Sema3A-expressing COS cells was not found at all (no inhibitory effect for Sema3A), it was scored −.

[2] = biological target: T2, mouse semaphorin 3A (Sema3A) (Mus musculus, UniProt O08665); test: Suppression of growth cone collapse activity of Sema3A (chick embryo dorsal root ganglions); format: cell-based; conditions: for inhibition of growth cone collapse activity of Sema3A (in words): chick embryo dorsal root ganglions; for IC50: E7 chick embryo dorsal root ganglions, 2 units/ml Sema3A added 1 hour after compound, concentration where collapse rate = (A+B)/2, read-out: IC50 of inhibition of the growth cone collapse activity of Sema3A (converted)
T2 sequence (O08665 21-772): T1 sequence (O08665 21-772)
Method: A 96-well plate (Sumitomo Bakelite Co., ltd. ) pre-coated with polylysine was further coated with laminine (20 μg/ml of laminine, for 1 hour at room temperature). Each well was added with 100 μl of medium (F12 medium containing 10% bovine fetal serum, 20 ng/ml of NGF, 100 units/ml of penicillin and 100 μg/ml of streptomycin) which media were then inoculated with dorsal root nerve ganglions excised from E7 (Embryonic day 7) chick embryo and were cultured for 16 to 20 hours under 5% CO2 and at 37° C. Subsequently, the object compounds were added to media at various concentrations and 2 units/ml of mouse semaphorin 3A (Sema3A) was added after cultivating for 1 hour. The cultures were further incubated for another 1 hour. Glutaraldehyde was quickly added therein after said 1 hour to make the final concentration 1%. The cultures were then left for 15 minutes at room temperature so that the tissue sections were fixed, and collapse rates of the growth cones were microscopically observed. A well with no addition of Sema3A was made the control.
The longitudinal and lateral axes in the figures represent the collapse rate of growth cones and the concentration of compounds, respectively. ●▪▴ show the results when Sema3A was added after the addition of the compounds and ◯[…]Δ show those when Sema3A was not added. Further, IC50 (μg/ml) of the inhibitors were determined by the method comprising: calculating the collapse rate of growth cone (A) % of the negative controls (neither compounds nor Sema3a was added); subsequently calculate the collapse rate of growth cone (B) % of the positive controls (compounds were not added but Sema3a was added); and the concentration was chosen for each compound from the chart where the collapse rate of growth cone met (A+B)/2(%), which was made IC50 level. The followings are the results.

[3] = tested on: COS7 cells; test: Effect on cell proliferation (MTT); format: cell-based; conditions: Chlorocebus aethiops, COS-7, 48 h, two days, read-out: IC50, inhibitory rate for cell proliferation
Method: COS7 cells were seeded onto a 96-well plate (medium 100 μl/well) at 10000 cells per well. At the same time, SPF-3059-1 of various concentrations was added and the cells were cultivated for two days in the presence of 5% CO2 at 37° C. Each well was then added with 10 μl of MTT solution at 5 mg/ml and cultured for another one hour. Subsequently, the culture supernatant was removed and formazan (an MTT derivative produced in viable cells) accumulated in the cells was dissolved by the addition of 50 μl DMSO and then the absorbance at 570 nm was measured to determine the proliferation of COS7 cells. […] The longitudinal and lateral axes in the figure show cell proliferation and the SPF-3059-1 concentration, respectively. Besides, the standard deviation (n=4) was added to each column.
The same effect on cell proliferation as in Example 9 was examined for the compounds, SPF-3059-1, SPF-3059-2 and SPF-3059-5. The wells with these compounds were served as samples, the wells with PBS were served as control, and the wells for which the experiment was carried out without adding the cells was served as blank. IC50 (μg/ml), the inhibitory rate for cell proliferation, was determined, which is calculated by the equation shown below. The inhibitory rate for cell proliferation (%)=(1−(absorbance of a sample well−absorbance of the blank well)/(absorbance of the control well−absorbance of the blank well))×100

[4] = Solubility; format: physicochemical

| SMILES | suppression of neurite outgrowth inhibitory activity of Sema3A, score ([1]; 0.5 μg/ml compound) | suppression of neurite outgrowth inhibitory activity of Sema3A, score ([1]; 1.0 μg/ml compound) | suppression of neurite outgrowth inhibitory activity of Sema3A, score ([1]; 2.0 μg/ml compound) | inhibition of neurite outgrowth-inhibitory action of Sema3A, score [1] | persistent inhibitory action to Sema3A (neurite outgrowth toward Sema3A-expressing COS7 cell clump) [1] | inhibition of growth cone collapse activity of Sema3A (in words) [2] | IC50 [3] | IC50 [2] | Solubility ([4]; methanol, DMSO) | Solubility ([4]; water, hexane) |
| --- | --- | --- | --- | --- | --- | --- | --- | --- | --- | --- |
| CC(=O)c1cc2c(=O)c3cc(O)c(O)cc3oc2c(C(C)=O)c1-c1coc2cc(O)c(O)c(C(=O)O)c2c1=O [SPF-3059-2] | + | ++ | +++ | +++ | persistently inhibited the action of Sema3A | inhibit the growth cone collapse activities of Sema3A in a concentration-dependent manner; also recorded: potently inhibit semaphorin | > 100 µg/mL | – | – | – |
| CC(=O)c1cc2c(=O)c3c(C(=O)O)c(O)c(O)cc3oc2c(C(C)=O)c1-c1coc2cc(O)c(O)c(C(=O)O)c2c1=O [SPF-3059-5] | + | ++ | ++ | ++ | persistently inhibited the action of Sema3A | inhibit the growth cone collapse activities of Sema3A in a concentration-dependent manner; also recorded: potently inhibit semaphorin | > 300 µg/mL | < 173 nM | – | – |
| CC(=O)c1c(C)c(C(=O)C2COc3cc(O)c(O)cc3C2=O)cc2c(=O)c3c(C(=O)O)c(O)c(O)cc3oc12 (stereo not shown) [SPF-3059-9] | – | – | – | – | – | – | > 100 µg/mL | 187 nM | Soluble | Insoluble |
| CC(=O)c1cc2c(=O)c3c(C(=O)O)c(O)c(O)cc3oc2c(C(C)=O)c1-c1coc2cc(O)c(O)cc2c1=O [SPF-3059-24] | – | – | – | – | – | – | > 100 µg/mL | 188 nM | Soluble | Insoluble |
| CC(=O)c1cc2c(=O)c3c(C(=O)O)cc(O)cc3oc2c(C(C)=O)c1-c1coc2cc(O)c(O)cc2c1=O [SPF-3059-25] | – | – | – | – | – | – | – | 7750 nM | Soluble | Insoluble |
| CC(=O)c1cc2c(=O)c3cc(O)c(O)cc3oc2c(C(C)=O)c1-c1coc2cc(O)c(O)cc2c1=O [SPF-3059-26] | – | – | – | – | – | – | – | 409 nM | Soluble | Insoluble |
| CC(=O)c1cc(-c2c(C(C)=O)cc3c(=O)c4c(C(=O)O)c(O)c(O)cc4oc3c2C(C)=O)cc(C(=O)c2cc(O)c(O)cc2O)c1O [SPF-3059-27] | – | – | – | – | – | – | – | 778 nM | Soluble | Insoluble |
| CC(=O)c1c(C)c(-c2cc(=O)c3c(C(=O)O)cc(O)cc3o2)cc2c(=O)c3c(C(=O)O)c(O)c(O)cc3oc12 [SPF-3059-28] | – | – | – | – | – | – | – | 3760 nM | Soluble | Insoluble |
| COCc1c(-c2cc3c(=O)c4cc(O)c(O)cc4oc3c(C(C)=O)c2C)oc2cc(O)c(O)c(C(=O)O)c2c1=O [SPF-3059-29] | – | – | – | – | – | – | > 100 µg/mL | 182 nM | Soluble | Insoluble |
| CC(=O)c1c(C)c(C(=O)C2COc3cc(O)c(O)cc3C2=O)cc2c(=O)c3cc(O)c(O)cc3oc12 (stereo not shown) [SPF-3059-30] | – | – | – | – | – | – | > 100 µg/mL | 408 nM | Soluble | Insoluble |
| CC(=O)c1c(C)c(C(=O)C2(O)COc3cc(O)c(O)cc3C2=O)cc2c(=O)c3c(C(=O)O)c(O)c(O)cc3oc12 (stereo not shown) [SPF-3059-34] | – | – | – | – | – | – | – | 182 nM | Soluble | Insoluble |
| COC(=O)c1cc(O)cc2oc(-c3cc4c(=O)c5c(C(=O)O)c(O)c(O)cc5oc4c(C(C)=O)c3C)cc(=O)c12 [SPF-3059-35] | – | – | – | – | – | – | – | 3660 nM | Soluble | Insoluble |
| CC(=O)c1cc(-c2c(C(C)=O)cc3c(=O)c4cc(O)c(O)cc4oc3c2C(C)=O)cc(C(=O)c2cc(O)c(O)cc2O)c1O [SPF-3059-36] | – | – | – | – | – | – | – | 6680 nM | Soluble | Insoluble |
| CC(=O)c1c(C)c(-c2oc3cc(O)c(O)c(C(=O)O)c3c(=O)c2Cc2c(C)oc3c(c2=O)COc2cc(O)c(O)cc2-3)cc2c(=O)c3c(C(=O)O)c(O)c(O)cc3oc12 [SPF-3059-37] | – | – | – | – | – | – | – | < 124 nM | Soluble | Insoluble |
| CC(=O)c1c(C)c(-c2cc(=O)c3c(C(=O)O)c(O)c(O)cc3o2)cc2c(=O)c3c(C(=O)O)c(O)c(O)cc3oc12 [SPF-3059-39] | – | – | – | – | – | – | – | 182 nM | Soluble | Insoluble |
